From paper PMC6129194 (Bioorganic & medicinal chemistry, 2018)

Legend:
[1] = cited from earlier work
[2] = cited from earlier work; remark: listed apart in the source
[3] = tested on: MDCK-mdr1 cells; assay: MDCK-mdr1 monolayer permeability assay; conditions: % transported apical to basal; 10 μM, 1 h, 37 °C, pH 7.4

Structure (SMILES) | solubility in acidic media [1] | human liver microsome stability [2] | MDCK-mdr1 A to B [3]
CN1CCN(c2ncnc3c2nc(-c2ccccc2Cl)n3-c2ccc(Cl)cc2)CC1 [compound 5] | good | good | –
CC(C)CS(=O)(=O)N1CCN(c2ncnc3c2nc(-c2ccccc2Cl)n3-c2ccc(Cl)cc2)CC1 [compound 15, 8-(2-Chlorophenyl)-9-(4-chlorophenyl)-6-{4-[(2-methylpropyl)sulfonyl]piperazin-1-yl}-9H-purine] | – | – | < 1%
O=C(OCC1CCC1)N1CCN(c2ncnc3c2nc(-c2ccccc2Cl)n3-c2ccc(Cl)cc2)CC1 [compound 26, Cyclobutylmethyl 4-[8-(2-Chlorophenyl)-9-(4-chlorophenyl)-9H-purin-6-yl]piperazine-1-carboxylate] | – | – | < 1%
N=C(Nc1ccc(F)cc1)N1CCN(c2ncnc3c2nc(-c2ccccc2Cl)n3-c2ccc(Cl)cc2)CC1 [compound 28, 4-[8-(2-Chlorophenyl)-9-(4-chlorophenyl)-9H-purin-6-yl]-N-(4-fluorophenyl)piperazine-1-carboximidamide] | – | – | < 1%
